Each structure is given as a SMILES string.

In this test the target is T1, α1 glycine receptor (GlyR) (Mus musculus, UniProt Q64018, K421A/K422A).
T1 sequence (Q64018 29-457 K421A/K422A): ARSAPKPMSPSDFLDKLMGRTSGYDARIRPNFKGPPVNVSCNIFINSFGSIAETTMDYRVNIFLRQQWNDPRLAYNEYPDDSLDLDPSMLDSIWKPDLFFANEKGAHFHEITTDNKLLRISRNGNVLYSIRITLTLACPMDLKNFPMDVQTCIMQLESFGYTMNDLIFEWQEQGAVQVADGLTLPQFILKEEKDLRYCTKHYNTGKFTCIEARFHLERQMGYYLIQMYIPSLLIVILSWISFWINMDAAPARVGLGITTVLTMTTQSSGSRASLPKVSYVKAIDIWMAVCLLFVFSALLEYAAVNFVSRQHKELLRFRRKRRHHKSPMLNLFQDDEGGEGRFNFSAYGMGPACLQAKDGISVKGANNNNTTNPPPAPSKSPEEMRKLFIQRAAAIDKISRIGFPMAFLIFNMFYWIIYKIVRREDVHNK
As to the kind of experiment: whole-cell patch clamp, glycine concentration-response. Type of test: cell-based. (In patch-clamp work, channel activity is measured electrically.)

What is called EC50 is the concentration at which the effect is half-maximal. For the compound `NCC(=O)O` [glycine], the EC50 was determined as 54 ± 1 µM.

Source of the values: article PMC6751026 (Addiction biology, 2019).
